Experimental data taken from patent publication US6756408B2, “Methods and materials for protecting against myocardial cell damage related to coronary intervention by regional beta blocker therapy” (Board of Regents, The University of Texas System, priority 2001, dated 2004).

Tested on: patients with coronary artery disease undergoing PCI
Assay: Randomized, double-blind, placebo-controlled trial of intracoronary propranolol before percutaneous coronary intervention
Type: in vivo
Experimental: Study population: This study was a randomized, double-blind, placebo-controlled trial. Patients with coronary artery disease undergoing PCI were considered for inclusion. Patients on chronic beta blockers were included. Exclusion criteria included myocardial infarction (“MI”) within 24 h or recent MI with elevation of CK or CKMB at time of randomization (a normal CK and CKMB and elevated troponin T allowed inclusion); cardiogenic shock; systolic blood pressure<100 mm Hg; heart rate<50/min; NYHA class III or IV heart failure; severe left ventricular dysfunction (ejection fraction<30%); severe renal insufficiency (creatinine>3.0 mg/dl); allergy to propranolol; or second planned intervention within 30 days. Patients with chronic obstructive pulmonary disease (“COPD”) were not specifically excluded.
Study protocol: Before initiation of PCI, all patients were pretreated with aspirin and received weight-adjusted heparin, with a target activated clotting time of >300 seconds in the absence of a glycoprotein IIb/IIIa (“GP IIb/IIIa”) inhibitor and 200-300 seconds with a GP IIb/IIIa inhibitor, which was allowed but not mandated.
Patients were randomized in a 1:1 ratio to receive either placebo or propranolol. The randomization allocation code was generated using complete block design. Randomization was performed after coronary angiography confirmed the need for PCI. In patients with a total occlusion, the lesion was crossed with a guide wire before randomization.
Study drug kits were packaged by hospital pharmacy to be indistinguishable from each other with a concentration of 1 mg/ml; the identity of the injectate (i.e., propranolol or placebo) was not known to the investigators or to the patients. […] The study drug was thus delivered directly into the myocardial region supplied by the stenotic coronary artery undergoing PCI. Balloon inflation was performed after the IC injection of propranolol or placebo. Blood samples were taken prior to PCI, immediately after PCI, and every 8 h for 24 h to assay CK and CKMB. Blood samples were taken at 16 h for troponin T analysis. Additional blood levels were obtained when any patient experienced possible ischemic symptoms. The 30-day contact was made by clinic visit or telephone interview.
Study endpoints: The primary endpoint was the incidence of post-procedural elevation of CKMB above the upper limit of normal (“ULN”). The “threshold” for the development of an excess in adverse events relative to the level of CKMB appears to be a continuous function beginning with any elevation of CKMB or troponin T with the frequency of long-term adverse events, particular death, increasing with the level of enzyme rise (Simoons, which is hereby incorporated by reference). Secondary endpoints included (1) incidence of post-procedure total CK elevation, (2) incidence of troponin T elevation (in those patients with normal baseline values), (3) median peak values of CK, CKMB, and troponin T, (4) rescue therapy with GP IIb/IIIa inhibitors, and (5) combination of death from any cause, myocardial necrosis, recurrent MI within 30 days, or severe myocardial ischemia requiring urgent coronary-artery bypass surgery or target lesion revascularisation (“TLR”) within 30 days of intervention (“MACE”).
Urgent target lesion revascularisation included any coronary artery bypass graft surgery or a second PCI on the original target lesion performed for recurrent myocardial ischemia. Successful PCI was defined as post-procedure residual stenosis at the target lesion<30% of reference vessel diameter without major adverse outcome (death, Q wave MI, emergent CABG). Major bleeding was defined as bleeding requiring transfusion, surgery, prolongation of hospital stay, or >8% drop in hematocrit after PCI. Rescue GP IIb/IIIa use was defined as drug given after the guide wire passage during PCI.

[1] = patients with mechanical complications, n = 17
[2] = patients with no mechanical complication, n = 58

`CC(C)NCC(O)COc1cccc2ccccc12` (stereo not shown) [Propranolol, propranolol] was tested, and the “Change in heart rate or blood pressure after IC injection” value (15 μg/kg intracoronary) was “no change”, the “Incidence of elevation of CKMB (>5 ng/ml) after PCI” value (0.015 mg/kg) was 17% and the “Incidence of elevation of Troponin T (>0.10 ng/ml) after PCI” value (0.015 mg/kg, 16 h) was 13%. For the same molecule, the Death (30 days after PCI, n = 75) was 0%, the “Recurrent MI” value (30 days after PCI, n = 75) was 1% and the “Urgent/emergent TLR” value (30 days after PCI, n = 75) was 0%. For the same molecule, the Significant bleeding (after PCI) was 3%, the “Combined 30d MACE” value (death, myocardial necrosis, recurrent MI, urgent TLR within 30 days, n = 75) was 18% and the “"Rescue" GP IIb/IIIa inhibitors use required” value (drug given after guide wire passage during PCI) was 11%. For the same molecule, the “Adverse systemic effects after IC injection” value (including respiratory difficulties in 5 patients with history of COPD or asthma) was “no adverse systemic effects”, the “Heart rate, post drug” value (largest change after drug administration, baseline 67 ± 11) was 66 ± 11 beats/min and the “Systolic BP, post drug” value (largest change after drug administration, baseline 139 ± 25) was 137 ± 23 mmHg. The “CKMB elevation ≧3 times upper limit of normal” value (number of patients out of 75) was 7 patients, the “Elevation of CK (% of patients)” value [1] was 18% and the “Elevation of CKMB (% of patients)” value [1] was 41%. The “Elevation of troponin T (% of patients)” value [1] was 35%, the “Elevation of CK (% of patients)” value [2] was 0% and the “Elevation of CKMB (% of patients)” value [2] was 10%. For the same molecule, the “Elevation of troponin T (% of patients)” value [2] was 5%, the “Median value of CKMB” value (post PCI, all patients) was 2.1 and the “Median value of total CK” value (post PCI, all patients) was 67. For the same molecule, the “Median value of troponin T” value (post PCI, all patients) was 0.03, the “Favorable effect on preventing myocardial necrosis, subgroup analysis” value (relative risk by subgroups, FIG. 3) was “broadly applicable” and the “Recurrent MI (number of patients)” value (within 30 days) was 1 patients. For the same molecule, the “Urgent TLR required (number of patients)” value (within 30 days) was 0 patients.
